Laboratory results as given in ChEMBL document CHEMBL3399952, “Design and synthesis of novel anti-tuberculosis agents from the celecoxib pharmacophore” (Bioorg Med Chem, 2015).
The source made the active and inactive calls.

Experiments:
Type in all cases: functional, organism-based
[1] = test system: Mycobacterium tuberculosis; test: Antimycobacterial activity against isoniazid, streptomycin-resistant Mycobacterium tuberculosis Strain 13E assessed as reduction in growth measured at 2.5 uM after 90 hrs by optical density-based broth culture growth assay
[2] = test system: Mycobacterium tuberculosis; test: Antimycobacterial activity against rifampicin, streptomycin-resistant Mycobacterium tuberculosis Strain 13B assessed as reduction in growth measured at 2.5 uM after 90 hrs by optical density-based broth culture growth assay
[3] = test system: Mycobacterium tuberculosis; test: Antimycobacterial activity against isoniazid, ethambutol-resistant Mycobacterium tuberculosis Strain 11J assessed as reduction in growth measured at 2.5 uM after 90 hrs by optical density-based broth culture growth assay

Measured: inhibition

CNC(=O)CCc1cc(-c2ccc(-c3ccc(C(F)(F)F)cc3)cc2)nn1-c1ccc(NC(=O)c2ccncc2)cc1
active: all assays above

CNC(=O)CCc1cc(-c2ccc(-c3ccc(C(F)(F)F)cc3)cc2)n(-c2ccc(NC(=O)c3ccncc3)cc2)n1
active: all assays above

CNC(=O)CCc1cc(-c2ccc(-c3ccc(C(F)(F)F)cc3)cc2)n(-c2ccc(NC(=O)c3ccc(N)cc3)cc2)n1
active: all assays above

CNC(=O)CCc1cc(-c2ccc(-c3ccc(C(F)(F)F)cc3)cc2)n(-c2ccc(NC(=O)c3ccncc3Cl)cc2)n1
active: all assays above

CNC(=O)CCc1cc(-c2ccc(-c3ccc(C(F)(F)F)cc3)cc2)n(-c2ccc(NC(=O)c3cn(C)cn3)cc2)n1
active: all assays above

CNC(=O)CCc1cc(-c2ccc(-c3ccc(C(F)(F)F)cc3)cc2)n(-c2ccc(NC(=O)c3ccnc(C)c3)cc2)n1
active: all assays above
